ChEMBL document CHEMBL1201862, “PubChem BioAssay data set” (2004)
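Five compound concentrations were applied to cells in 96-well plates for 48 hours; endpoints were derived by simple linear interpolation of the resulting dose-response curve. At the GI50, growth is halved.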 The source made the active and inactive calls. Rule as the data show it: active = GI50 up to about 1.1 µM and inactive = higher.

Columns and labels:
Experiment in all cases: NCI tumour cell line growth inhibition, 48 h
SR = system: SR
MDA-MB-435 = system: MDA-MB-435
CAKI-1 = system: CAKI-1
UO-31 = system: UO-31
UACC-62 = system: UACC-62
RPMI-8226 = system: RPMI-8226
RXF 393 = system: RXF 393
Hs-578T = system: Hs-578T
PC-3 = system: PC-3
ACHN = system: ACHN
MDA-MB-231 = system: MDA-MB-231
OVCAR-3 = system: OVCAR-3
HCC 2998 = system: HCC 2998
M14 = system: M14
SF-295 = system: SF-295
NCI-H23 = system: NCI-H23
HOP-62 = system: HOP-62
KM12 = system: KM12
SW-620 = system: SW-620
IGROV-1 = system: IGROV-1

| Structure (SMILES) | GI50 (SR) | GI50 (MDA-MB-435) | GI50 (CAKI-1) | GI50 (UO-31) | GI50 (UACC-62) | GI50 (RPMI-8226) | GI50 (RXF 393) | GI50 (Hs-578T) | GI50 (PC-3) | GI50 (ACHN) | GI50 (MDA-MB-231) | GI50 (OVCAR-3) | GI50 (HCC 2998) | GI50 (M14) | GI50 (SF-295) | GI50 (NCI-H23) | GI50 (HOP-62) | GI50 (KM12) | GI50 (SW-620) | GI50 (IGROV-1) |
| --- | --- | --- | --- | --- | --- | --- | --- | --- | --- | --- | --- | --- | --- | --- | --- | --- | --- | --- | --- | --- |
| CCOC(=O)c1c(N2CCCC2)[nH]c(=O)c(C(c2ccc(OC)cc2)c2c(O)c(C(=O)OCC)c(N3CCCC3)[nH]c2=O)c1O | 88.9 µM (inactive) | > 100 µM (inactive) | 28.4 µM (inactive) | > 100 µM (inactive) | > 100 µM (inactive) | > 100 µM (inactive) | 57.3 µM (inactive) | > 100 µM (inactive) | > 100 µM (inactive) | 56 µM (inactive) | 20.8 µM (inactive) | > 100 µM (inactive) | > 100 µM (inactive) | > 100 µM (inactive) | 25.7 µM (inactive) | 82 µM (inactive) | 46.6 µM (inactive) | > 100 µM (inactive) | > 100 µM (inactive) |  |
| CN(C)CN1CSC(=S)N(CN(C)C)C1 | 16.8 µM (inactive) | > 100 µM (inactive) | > 100 µM (inactive) | > 100 µM (inactive) | > 100 µM (inactive) |  | > 100 µM (inactive) | > 100 µM (inactive) | 16.9 µM (inactive) | > 100 µM (inactive) | > 100 µM (inactive) | > 100 µM (inactive) | > 100 µM (inactive) | > 100 µM (inactive) | > 100 µM (inactive) | > 100 µM (inactive) | > 100 µM (inactive) | > 100 µM (inactive) | > 100 µM (inactive) | 54.3 µM (inactive) |
| Cc1nn(C(=O)c2ccncc2)c2c1C(c1ccccc1[N+](=O)[O-])SC(=N)N2 (stereo unspecified) | > 10 µM (inactive) | > 10 µM (inactive) | > 10 µM (inactive) |  | > 10 µM (inactive) | > 10 µM (inactive) | > 10 µM (inactive) | > 10 µM (inactive) | > 10 µM (inactive) | > 10 µM (inactive) | > 10 µM (inactive) | > 10 µM (inactive) | > 10 µM (inactive) | > 10 µM (inactive) | > 10 µM (inactive) | > 10 µM (inactive) | > 10 µM (inactive) | > 10 µM (inactive) | > 10 µM (inactive) | > 10 µM (inactive) |
| C[C@@H]1[C@@H](c2ccccc2)O[B-](c2ccccc2)(c2ccccc2)[N+]1(C)C | 53 µM (inactive) | 98.6 µM (inactive) | 48.3 µM (inactive) | 22.7 µM (inactive) | > 100 µM (inactive) | 58.9 µM (inactive) | 34.7 µM (inactive) | 54.2 µM (inactive) | 22.8 µM (inactive) | 50.1 µM (inactive) | > 100 µM (inactive) | 70.5 µM (inactive) |  | 34.5 µM (inactive) | > 100 µM (inactive) | 90.6 µM (inactive) | > 100 µM (inactive) | > 100 µM (inactive) | 62.7 µM (inactive) | 96.8 µM (inactive) |
| COc1ccc(Cc2nc3cc(C(F)(F)F)ccc3n2C[C@@H]2CCCN3CCCCC23)cc1 (stereo partly specified) | 3.93 µM (inactive) | 12.2 µM (inactive) | 12.6 µM (inactive) |  | 5.69 µM (inactive) | 11.6 µM (inactive) | 5.4 µM (inactive) | 19.9 µM (inactive) | 10.6 µM (inactive) | 6.75 µM (inactive) | 11 µM (inactive) | 5.77 µM (inactive) | 2 µM (inactive) | 2.72 µM (inactive) | 5.82 µM (inactive) | 14.6 µM (inactive) | 8.73 µM (inactive) | 13.5 µM (inactive) | 21.3 µM (inactive) | 5.42 µM (inactive) |
| COC(=O)c1cc2c(cc1C(=O)OC)[C@@]1(C)CCCC(C)(C)C1CC2 (stereo partly specified) | 15.1 µM (inactive) | 30.2 µM (inactive) |  | 17.8 µM (inactive) | 12.2 µM (inactive) | 10.7 µM (inactive) | 10.1 µM (inactive) | 17.7 µM (inactive) | 14.8 µM (inactive) | 20.7 µM (inactive) | 17.3 µM (inactive) | 10.2 µM (inactive) | 17.4 µM (inactive) | 22.9 µM (inactive) | 16.3 µM (inactive) | 30.5 µM (inactive) | 23.8 µM (inactive) | 15.2 µM (inactive) | 18.7 µM (inactive) | 10.4 µM (inactive) |
| C[C@@H](c1ccccc1)N1CN(C(=O)OCc2ccccc2)C(C)(C)CC1=O | 86.3 µM (inactive) | > 100 µM (inactive) | > 100 µM (inactive) |  | > 100 µM (inactive) | > 100 µM (inactive) | 15.5 µM (inactive) | > 100 µM (inactive) | > 100 µM (inactive) | > 100 µM (inactive) | > 100 µM (inactive) | > 100 µM (inactive) | > 100 µM (inactive) | > 100 µM (inactive) | > 100 µM (inactive) | > 100 µM (inactive) | > 100 µM (inactive) | > 100 µM (inactive) | > 100 µM (inactive) | > 100 µM (inactive) |
| COc1cc(/C=C/C2=NN(c3cccc(S(=O)(=O)O)c3)C3(C2)C(Cl)C(=O)N3c2nc3ccccc3s2)ccc1O (stereo unspecified) | 15.6 µM (inactive) | 17.1 µM (inactive) | 17 µM (inactive) | 16.9 µM (inactive) | 18.5 µM (inactive) | 16.1 µM (inactive) | 29.2 µM (inactive) | 50 µM (inactive) | 25.6 µM (inactive) | 16.7 µM (inactive) | 20.8 µM (inactive) |  | 20.7 µM (inactive) | 40.7 µM (inactive) |  | 13 µM (inactive) |  | 19.1 µM (inactive) | 21.1 µM (inactive) | 13.7 µM (inactive) |
| COC(=O)c1scc(N)c1-n1ccc(=O)[nH]c1=O | > 100 µM (inactive) | > 100 µM (inactive) | > 100 µM (inactive) | > 100 µM (inactive) | > 100 µM (inactive) | > 100 µM (inactive) | > 100 µM (inactive) | > 100 µM (inactive) | > 100 µM (inactive) | > 100 µM (inactive) | > 100 µM (inactive) |  | > 100 µM (inactive) | > 100 µM (inactive) |  | > 100 µM (inactive) |  | > 100 µM (inactive) | > 100 µM (inactive) | > 100 µM (inactive) |
| CCCNC(=S)N/C=C1/C(=O)Oc2ccccc2C1=O | > 100 µM (inactive) | > 100 µM (inactive) | > 100 µM (inactive) | 28.4 µM (inactive) | 92 µM (inactive) |  | 60.4 µM (inactive) | 50.4 µM (inactive) | > 100 µM (inactive) | 94.8 µM (inactive) | > 100 µM (inactive) | > 100 µM (inactive) | > 100 µM (inactive) | > 100 µM (inactive) | > 100 µM (inactive) | > 100 µM (inactive) | > 100 µM (inactive) | > 100 µM (inactive) | > 100 µM (inactive) | 89.9 µM (inactive) |
| Cc1ccc(S(=O)(=O)c2[nH]cc(/C(=C\C3CCCCC3)[N+](=O)[O-])c2C2CCCCC2)cc1 | 0.281 µM (active) | 0.398 µM (active) | 0.22 µM (active) | 0.493 µM (active) | 0.234 µM (active) | 0.251 µM (active) | 0.196 µM (active) | 0.324 µM (active) | 0.472 µM (active) | 0.366 µM (active) | 0.217 µM (active) | 0.27 µM (active) | 0.682 µM (active) | 0.236 µM (active) |  | 0.542 µM (active) | 1.41 µM (inactive) | 1.79 µM (inactive) | 0.376 µM (active) | 0.314 µM (active) |
| O=C(N1CCOCC1)C1(c2ccccc2)CCNCC1 | > 100 µM (inactive) | > 100 µM (inactive) | > 100 µM (inactive) | > 100 µM (inactive) | > 100 µM (inactive) | > 100 µM (inactive) | > 100 µM (inactive) | > 100 µM (inactive) | > 100 µM (inactive) | > 100 µM (inactive) | > 100 µM (inactive) | > 100 µM (inactive) |  | > 100 µM (inactive) | > 100 µM (inactive) | > 100 µM (inactive) | > 100 µM (inactive) | > 100 µM (inactive) | > 100 µM (inactive) | > 100 µM (inactive) |
| c1ccc(-c2cs[s+]c2)cc1 | 52.2 µM (inactive) | > 100 µM (inactive) | > 100 µM (inactive) | > 100 µM (inactive) | > 100 µM (inactive) |  | > 100 µM (inactive) | > 100 µM (inactive) | > 100 µM (inactive) | > 100 µM (inactive) | > 100 µM (inactive) | 67 µM (inactive) | > 100 µM (inactive) | > 100 µM (inactive) | > 100 µM (inactive) | > 100 µM (inactive) | > 100 µM (inactive) | > 100 µM (inactive) | 49.5 µM (inactive) | > 100 µM (inactive) |
| CC1=C2C3=C(C)C(=O)C(C)(C)CC[C@@]3(C)[C@]2(C)CCC(C)(C)C1=O | > 100 µM (inactive) | > 100 µM (inactive) | > 100 µM (inactive) | > 100 µM (inactive) | > 100 µM (inactive) | > 100 µM (inactive) | > 100 µM (inactive) | > 100 µM (inactive) | > 100 µM (inactive) | > 100 µM (inactive) | > 100 µM (inactive) | > 100 µM (inactive) |  | > 100 µM (inactive) | > 100 µM (inactive) | > 100 µM (inactive) | > 100 µM (inactive) | > 100 µM (inactive) | > 100 µM (inactive) | > 100 µM (inactive) |
| CC(Nc1cc(=O)n(C)c(=O)[nH]1)c1ccccc1 (stereo unspecified) | > 100 µM (inactive) | > 100 µM (inactive) | > 100 µM (inactive) | > 100 µM (inactive) | > 100 µM (inactive) |  | > 100 µM (inactive) | > 100 µM (inactive) | > 100 µM (inactive) | > 100 µM (inactive) | > 100 µM (inactive) | > 100 µM (inactive) | > 100 µM (inactive) | > 100 µM (inactive) | > 100 µM (inactive) | > 100 µM (inactive) | > 100 µM (inactive) | > 100 µM (inactive) | > 100 µM (inactive) | > 100 µM (inactive) |
